Results taken from patent US20040258772A1, “Methods of treating angiogenesis, tumor growth, and metastasis” (priority 2002, published 2004).
“Also recorded” adds a separate entry of the source.

Key:
A549 cells [1] = test: Adenocarcinoma (A549) subcutaneous tumor model; type: in vivo, SCID mice
From the text: (§1) For human tumor studies, female SCID mice (weighing 20 to 30 g) were purchased from Taconic (White Plains, N.Y.) and allowed to acclimate for 1 week prior to experimentation. For murine tumor and matrigel studies, male CBA and C57B1/6 mice (weighing 25 to 30 g) were purchased form Jackson Labs (Bar Harbor, Me.) and also were allowed to acclimate for 1 week prior to experimentation.
(§2) Cell cultures and mice were exposed to CO at a concentration of 250 ppm. Briefly, 1% CO in air was mixed with air (21% oxygen) in a stainless steel mixing cylinder and then directed into a 3.70 ft^3 glass exposure chamber at a flow rate of 12 L/min. A CO analyzer (Interscan, Chatsworth, Calif.) was used to measure CO levels continuously in the chamber. CO concentrations were maintained at 250 ppm at all times. Cell cultures and mice were placed in the exposure chamber as required.
The second model was an adenocarcinoma (A549) model, wherein SCID mice were injected with 1×10^6 A549 cells subcutaneously. These animals were continuously exposed to air or to 250 ppm of CO for a period of six weeks. After the six-week period, the volume of the tumors that developed in the mice was evaluated.

[2] = test system: p21, p27, PCNA, Cdc25b, cyclin D1 in A549 cells; test: Immunoblot of growth/cell cycle proteins; type: cell-based, human
Procedure: Immunoblotting was performed to investigate protein expression by standard methods known in the art. Antibodies were purchased from Santa Cruz, StressGen and Cell Signaling.
To investigate CO-induced changes in the expression of various growth/cell cycle proteins in cancer cells, A549 cells were exposed for 24 hours to air or CO (250 ppm). After this period of exposure, cell lysates were collected from the cells and changes in protein expression in the lysates were examined by immunoblot.

HTC cells = test: [3H] thymidine uptake in wild-type and p21-deficient colon cancer cells; type: cell-based, human; details: p21-/- HTC cells versus wild type
Procedure: (§3) For [^3H] thymidine incorporation studies, cells were serum-starved overnight and then stimulated with 20% serum containing 5 mCi/ml [^3H] thymidine (New England Nuclear, Boston, Mass.). [^3H] thymidine incorporation was measured by scintillation spectroscopy. CO inhibits the growth of cancer cells in vitro Human and mouse cancer cell lines were used to investigate the effect of CO on growth rates of the cells in culture. Human adenocarcinoma cells (A549), mouse mesothelioma cells (AC29), and A549 and AC29 cells transformed with the heme oxygenase-1 (HO-1) gene (which causes the cells to overexpress HO-1) were exposed to low levels of CO (250 ppm) in culture. Four-day growth curves were generated.
Wild-type (Wt) HTC cells and HTC cells deficient in p21 (p21−/−), a gene known to control cell growth, were exposed to air or CO to determine whether p21 is involved in CO-induced growth arrest (FIG. 6). As indicated by [^3H] thymidine uptake, CO-induced growth arrest appears less marked in HTC cells that are deficient in p21.

angiogenesis = test: Matrigel angiogenesis assay, FGF/heparin Matrigel implanted under the skin; type: in vivo, C57/B16 mice
From the text: as §1, §2
The effect of CO (250 ppm) on angiogenesis was investigated using a Matri gel […] angiogenesis assay. A solubilized basement membrane matrix (Matrigel™) containing 20 ng/ml growth factor (FGF) and heparin was implanted under the skin of C57/B16 mice. The mice were then exposed to air or CO in air for two weeks. After the two-week period, the Matrigel™ was removed and examined.
In a separate experiment, Matrigel™ deposits containing 20 ng/ml growth factor (FGF) and heparin were implanted under the skin of C57/B16 mice, and the mice were exposed to air or CO (250 ppm) in air for 21 days. Photomicrographs of hematoxylin- and eosin-stained paraffin sections from the resected subcutaneous FGF-Matrigel deposits were prepared. Prominent angiogenesis was evident in deposits from air-exposed mice, as was a front of infiltrating vascular cells organizing into blood filled micro-capillaries (data not shown).

[3] = test system: mouse mesothelioma cells (AC29); test: Growth curves of cancer cells in culture exposed to CO; type: cell-based
From the text: (§4) A human adenocarcinoma cell line designated A549, a murine mesothelioma cell line designated AC29, and a human colon cancer cell line designated HCT were utilized for the studies described herein.
as §2
as §3, with “Four-day growth curves were generated.” left out

[4] = test system: VEGF production by A549 cells; test: VEGF production by ELISA; type: cell-based, human; details: CO plus air for 24 to 48 hours vs air alone
Procedure: ELISA kits for VEGF levels were purchased from R&D Systems and used according to the manufacturer's directions.
Whether CO inhibits production of VEGF, a growth factor that contributes to angiogenesis by promoting blood vessel growth, was investigated. A549 cells were exposed to air or CO plus air for 24 to 48 hours in vitro, and VEGF production by A549 cells was detected using an enzyme-linked immunosorbent assay (ELISA).

A549 cells [5] = test: [3H] thymidine uptake, cGMP dependence of CO-induced growth arrest; type: cell-based, human; details: CO 250 ppm 3 hours before and 24 hours after serum; compared to CO alone
Procedure: as §3
The cellular mechanisms by which CO causes inhibition were also investigated. To investigate whether CO-induced growth arrest is CGMP dependant, A549 cells were exposed to air, CO, CO+ODQ, or CO+Rp-8-BR. […] The ability of the cells to proliferate was determined by measuring the uptake of [3H] thymidine by the cells (FIG. 5). Cells were exposed to CO (250 ppm) for 3 hours prior to the addition of serum and [3H] thymidine (5 mCi/ml). After the addition of serum and [3H] thymidine, cells were maintained in CO for 24 hours. Cells were then rinsed, fixed and examined by scintillation spectroscopy.

AC29 cells = test: Mesothelioma (AC29) survival model, cells injected intraperitoneally; type: in vivo, CBA mice
From the text: as §1, §2
The first was a mesothelioma (AC29) model, wherein CBA mice were injected with 1×10^6 AC29 cells intraperitoneally and monitored for survival when continuously exposed to air or to an atmosphere containing 250 ppm CO for a period of six weeks. […] The survival rate of the CO-exposed mice was increased by greater than 90% as compared to air-exposed mice. The arrow shown in FIG. 3 denotes a time point at which half of the CO-exposed mice were removed from the CO chamber. Half of the mice were removed at that time to determine whether the effects of CO on mouse survival require continuous exposure to CO. A significant number of mice (50%, p<0.02) that were removed from the CO-containing atmosphere remained alive at the end of the experiment, whereas all air treated mice died by day 36. The number of mice in each group was 12 to 20 animals.
In another experiment, it was shown that CO-exposed mice survived for greater than 65 days (data not shown).

[6] = test system: Human adenocarcinoma cells (A549); type: cell-based; details: 250 ppm CO
From the text: as §4, §2, §3

[7] = test system: A549 cells transformed to overexpress HO-1; test: A549 HO-1 overexpressing tumor model; type: in vivo, mice; details: 50 μmol/kg s.c., data not shown
Procedure: The third model was also an A549 model, wherein mice were injected with A549 cells transformed to overexpress HO-1 (HO-1 clones A5 and L1). After the six-week period, the size and volume of tumors that developed in the mice were evaluated. […] Using Western blot analysis, the relative decrease in volume was determined to correlate with a relative decrease in expression of cyclin D1, a protein involved in the regulation of cell growth (data not shown).

`[C-]#[O+]` [CO, carbon monoxide] was tested, and the tumor volume (A549 cells [1]; CO plus air vs air alone) was “reduced”, the “reduction of tumor volume” value (A549 cells [1]; continuous 250 ppm CO for six weeks, compared to air-exposed mice) was “greater than 50%” and the “expression of p21, p27, PCNA, Cdc25b and cyclin D1” value ([2]; 250 ppm CO for 24 hours) was “causes changes in expression”. For the same compound, the “expression of p21” value ([2]; CO for 4, 8 and 24 hours) was “causes changes in expression”, the “CO-induced growth arrest ([3H] thymidine uptake)” value (HTC cells) was “less marked” and the “cellularity and blood in Matrigel deposits” value (angiogenesis; 250 ppm CO in air for 21 days) was “paucity of cellularity and blood”. For the same compound, the “angiogenesis in Matrigel deposits” value (angiogenesis; 250 ppm CO in air for 21 days, H&E sections) was “No angiogenesis was evident”, the “angiogenesis in Matrigel” value (angiogenesis; 250 ppm CO in air for two weeks, data not shown) was “no new blood vessel growth” and the “reduction in cell number” value ([3]; 250 ppm CO, by three days, compared to controls) was greater than 40%. The “proliferation after removal from CO-containing atmosphere” value ([3]; cultures removed from CO at day 5) was “proliferate at a normal rate”, the “proliferation of AC29 cells” value ([3]; six-day growth curve, CO vs air) was “inhibits the proliferation” and the VEGF production [4] was “substantially less VEGF; also recorded: inhibits”. For the same compound, the “uptake of [3H] thymidine (proliferation)” value (A549 cells [5]) was “growth arrest”, the “increase of survival rate” value (AC29 cells; 250 ppm CO, compared to air-exposed mice) was “greater than 90%” and the survival (AC29 cells; CO treatment delayed until one week after injection of mesothelioma cells) was “prolonged the lives; also recorded: prolongs survival”. The survival time (AC29 cells; another experiment, data not shown) was “greater than 65 days”, the survival (AC29 cells; continuous 250 ppm CO for six weeks vs air) was “lived longer; also recorded: prolongs survival” and the “mice removed from CO-containing atmosphere alive at end of experiment” value (AC29 cells; half of CO-exposed mice removed from chamber, p<0.02, all air treated mice died by day 36) was 50%. The “toxicity as cause of reduced cell numbers” value ([6]; A549 and AC29 cultures, confluency eventually achieved) was “not due to toxicity” and the “reduction in cell number” value ([6]; by three days, compared to controls) was greater than 40%.

In the case of `C=Cc1c2[n-]c(c1C)/C=c1\[n-]/c(c(C)c1C=C)=C\c1[n-]c(c(CCC(=O)O)c1C)/C=c1\[n-]c(c(C)c1CCC(=O)O)=C2.[Sn+4]` [tin protoporphyrin], the “effect on the inhibition of tumor growth by HO-1 overexpression” value [7] is reported as “reversible”.
